According to BindingDB's records for doi:10.1021/jm701437d (The Institute of Cancer Research, 2008):
pIC50: −log10 of the molar value.

target: not listed separately; assay: Inhibition of GSK3-beta in human PC3M cells by ELISA

| Compound | pIC50 |
| --- | --- |
| NC(c1ccccc1)C1CCN(c2ncnc3[nH]ccc23)CC1 (centres undefined) | < 4.52 |
| NC1CCN(c2ncnc3n[nH]cc23)CC1 | < 4.52 |
| NCC1(c2ccc(Cl)cc2)CCN(c2ncnc3nc[nH]c23)CC1 | 5.89 |
| NCC1(Cc2ccc(Cl)cc2)CCN(c2ncnc3nc[nH]c23)CC1 | 5.77 |
| NCC1CCN(c2ncnc3[nH]ccc23)CC1 | 4.96 |
| NC(c1ccc(Cl)cc1)C1CCN(c2ccnc3[nH]ccc23)CC1 (centres undefined) | 5.70 |
| NCC1CCN(c2ncnc3n[nH]cc23)CC1 | < 4.52 |
| NC1(c2ccc(Cl)cc2)CCN(c2ncnc3[nH]ccc23)CC1 | 6.22 |
| NC1CCN(c2ncnc3[nH]ccc23)CC1 | 4.82 |
| NCC1(c2ccc(Cl)cc2)CCN(c2ccnc3[nH]ccc23)CC1 | 5.85 |

target: Glycogen synthase kinase-3 beta (Homo sapiens, UniProt P49841); assay: Inhibition of GSK3-beta in human PC3M cells by ELISA
Sequence (P49841 whole entry): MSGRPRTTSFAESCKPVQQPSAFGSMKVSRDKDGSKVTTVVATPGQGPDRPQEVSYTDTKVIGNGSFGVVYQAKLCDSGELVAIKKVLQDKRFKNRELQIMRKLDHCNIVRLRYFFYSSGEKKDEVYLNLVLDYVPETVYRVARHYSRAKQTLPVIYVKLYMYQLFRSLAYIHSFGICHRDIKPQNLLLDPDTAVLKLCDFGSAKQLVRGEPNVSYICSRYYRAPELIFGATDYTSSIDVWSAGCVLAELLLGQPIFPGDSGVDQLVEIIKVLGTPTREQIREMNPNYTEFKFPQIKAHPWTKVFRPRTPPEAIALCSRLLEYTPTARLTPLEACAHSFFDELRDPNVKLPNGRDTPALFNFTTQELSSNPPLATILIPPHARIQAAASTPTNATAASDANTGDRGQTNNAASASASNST

| Compound | pIC50 |
| --- | --- |
| O=c1cc(N2CCOCC2)oc2c(-c3ccccc3)cccc12 | 5.09 |
| NCC1(c2ccc(Cl)cc2)CCN(c2ncnc3[nH]ccc23)CC1 | 6.23 |
| NC(c1ccc(Cl)cc1)C1CCN(c2ccnc3[nH]ccc23)CC1 (centres undefined) | 6.23 |
| NCC1(Cc2ccc(Cl)cc2)CCN(c2ncnc3[nH]ccc23)CC1 | 5.85 |
